The subject of one assay is Colletotrichum acutatum. Put plainly: Fungicidal effect test against fungus causing apple anthracnose (spore suspension, turbidity). The class given is cell-based. Conditions: 96 h, 25 ppm by volume, Czapek medium, 25° C., four days.
Another assay relates to Glomerella cingulata. Put plainly: Fungicidal effect test against fungi causing grape ripe rot disease (spore suspension, turbidity). The class given is cell-based. Conditions: Colletotrichum gloeosporioides, 72 h; 25 ppm by volume; Vogel medium; 25° C., three days.
A further assay deals with Botrytis cinerea. Put plainly: Control test of cucumber gray mold (sprayed young cucumber seedlings, inoculated). Conditions: in Cucumis sativus, 96 h, read-out: control value.

Bounds are passed on as bounds.

Method for Botrytis cinerea: Water was added to the emulsion to obtain a drug liquid in which the concentration of the five-membered heteroaryl compound according to the present invention reached a predetermined concentration. Then, the drug liquid was sprayed onto young cucumber seedlings cultivated in a nursery pot (variety “Jihai”-based, cotyledon stage), and then air-dried. […] They were left still in a moist room at 20° C.

Take `C=C/C(=C\C=C\C)CCN/C(=N\OC)c1c(Oc2cccc(Br)c2)cnn1C` [a-2]: the inhibition of growth at 25 ppm in the assay on Colletotrichum acutatum and in the assay on Glomerella cingulata was at least 75% in each case. Moreover, the pest or weed control at 25 ppm in the assay on Botrytis cinerea was at least 75%.
Consider `Cc1ccc(CC2CON=C(c3c(Oc4cccc(C5CC5)c4)cnn3C)N2)c(C)c1` (stereo not drawn) [a-3], for which the inhibition of growth at 25 ppm in the assay with Colletotrichum acutatum and with Glomerella cingulata was at least 75% in each case. Further, the pest or weed control at 125 ppm in the assay with Botrytis cinerea was at least 75%.
On to `C=C(C)/C(=C\C=C\C)CC(CON)NCc1c(Oc2ccc(Br)cc2)cnn1C` (stereo not drawn) [a-5], for which the inhibition of growth at 25 ppm in the assay on Colletotrichum acutatum and in the assay on Glomerella cingulata was at least 75% each time.
Turning to `CO/N=C(\NCCC1CC=C(C)C=C1C)c1c(Oc2ccc(C3CC3)cc2)cnn1C` (stereo not drawn) [a-6], the inhibition of growth at 25 ppm in the assay with Glomerella cingulata is at least 75%.
On to `Cc1ccc(Oc2cnn(C)c2C2=NOCC(Cc3ccc(C)cc3C)N2)cc1` (stereo not drawn) [a-7], for which the inhibition of growth at 25 ppm with Colletotrichum acutatum and in the assay with Glomerella cingulata was at least 75% in each case.
In the case of `CO/N=C(\NCCc1ccc(C)cc1)c1c(Oc2cccc(I)c2)cnn1C` [a-8], the inhibition of growth at 25 ppm with Colletotrichum acutatum and in the assay with Glomerella cingulata was at least 75% each time. Besides, the pest or weed control at 125 ppm with Botrytis cinerea is at least 75%.
In the case of `CCc1cccc(Oc2cnn(C)c2C2=NOCC(Cc3ccc(C)cc3C)N2)c1` (stereo not drawn) [a-10, 5-(2,4-dimethylbenzyl)-3-(4-(3-ethylphenoxy)-1-methyl-1H-pyrazol-5-yl)-5,6-dihydro-4H-1,2,4-oxadiazine], the inhibition of growth at 25 ppm in the assay on Colletotrichum acutatum and in the assay on Glomerella cingulata was at least 75% throughout.
As for `Cc1cccc(Oc2nnn(C)c2C2=NOCC(Cc3ccc(C)cc3C)N2)c1` (stereo not drawn) [a-12], the inhibition of growth at 25 ppm in the assay with Colletotrichum acutatum was at least 75%. This molecule also displayed an inhibition of growth at 25 ppm in the assay with Glomerella cingulata of at least 75%. Also, in the assay with Botrytis cinerea, the pest or weed control at 25 ppm was at least 75% and the pest or weed control at 125 ppm is at least 75%.
As for `CO/N=C(\NCCc1ccc(C)cc1)c1c(Oc2ccc(Cl)c(C)c2)nnn1C` [a-13], the inhibition of growth at 25 ppm with Colletotrichum acutatum and in the assay on Glomerella cingulata was at least 75% each time.
For the molecule `CO/N=C(\NCCc1ccc(C)cc1C)c1c(Oc2cccc(C(F)(F)F)c2F)nnn1C` [a-16], the inhibition of growth at 25 ppm with Colletotrichum acutatum and with Glomerella cingulata was at least 75% each time.
Regarding `C/C=C(C)\C=C(\C)CCCN/C(=N\OC)c1c(Oc2cccc(Cl)c2)cnn1C` [a-17], the inhibition of growth at 25 ppm with Colletotrichum acutatum and in the assay on Glomerella cingulata was at least 75% in each case.
On to `Cc1cccc(Oc2c(Cl)nn(C)c2C2NOCC(Cc3ccc(C)cc3C)N2)c1` (stereo not drawn) [a-18], for which the inhibition of growth at 25 ppm with Colletotrichum acutatum and in the assay with Glomerella cingulata was at least 75% throughout.
For `C/C=C(C)\C=C(\C)CCC1CON=C(c2c(Oc3cccc(Br)c3F)cnn2C)N1` (stereo not drawn) [a-19], the inhibition of growth at 25 ppm with Colletotrichum acutatum and in the assay on Glomerella cingulata was at least 75% each time.
As to `CCn1ncc(Oc2cccc(C)c2)c1CNC(CON)Cc1ccc(C)cc1C` (stereo not drawn) [a-20], the inhibition of growth at 25 ppm with Colletotrichum acutatum and in the assay on Glomerella cingulata was at least 75% in each case.
As for `C/C=C(Cl)\C=C(\Cl)CCC1CON=C(c2c(Oc3cccc(C)c3)cnn2CC)N1` (stereo not drawn) [a-21], the inhibition of growth at 25 ppm in the assay on Colletotrichum acutatum and with Glomerella cingulata was at least 75% throughout.
As for `C=C/C(=C\C=C\Br)CCN/C(=N\OC)c1c(Oc2cccc(C)c2)cnn1CC` [a-22], the inhibition of growth at 25 ppm in the assay on Colletotrichum acutatum and with Glomerella cingulata was at least 75% throughout.
With `CO/N=C(\NCCc1ccc(Br)cc1)c1c(Oc2cccc(C)c2)cnn1C` [a-23], the inhibition of growth at 25 ppm in the assay on Colletotrichum acutatum and in the assay on Glomerella cingulata was at least 75% each time.
In the case of `Cc1ccc(CC2CON=C(c3c(Oc4cccc(Br)c4)cnn3CC(F)(F)F)N2)cc1` (stereo not drawn) [a-24], the inhibition of growth at 25 ppm in the assay on Colletotrichum acutatum and in the assay on Glomerella cingulata was at least 75% in each case.
As for `Cn1ncc(Oc2cccc(C(F)(F)F)c2)c1C1=NOCC(c2cccs2)N1` (stereo not drawn) [a-25, 3-(1-methyl-4-(3-(trifluoromethyl)phenoxy)-1H-pyrazol-5-yl)-5-(thiophen-2-yl)-5,6-dihydro-4H-1,2,4-oxadiazine], the inhibition of growth at 25 ppm in the assay on Glomerella cingulata was at least 75%.
Regarding `Cc1ccc(C2CON=C(c3c(Oc4cccc(C(F)(F)F)c4)cnn3C)N2)s1` (stereo not drawn) [a-26, 3-(1-methyl-4-(3-(trifluoromethyl)phenoxy)-1H-pyrazol-5-yl)-5-(5-methylthiophen-2-yl)-5,6-dihydro-4H-1,2,4-oxadiazine], the inhibition of growth at 25 ppm in the assay on Colletotrichum acutatum and with Glomerella cingulata was at least 75% each time.
Turning to `C=C/C(=C\C=C\C)CC1CON=C(c2c(Oc3cccc(C)c3)cnn2C(C)C)N1` (stereo not drawn) [a-27], the inhibition of growth at 25 ppm in the assay with Colletotrichum acutatum and with Glomerella cingulata was at least 75% throughout. The pest or weed control at 25 ppm in the assay on Botrytis cinerea was at least 75%. In addition, the pest or weed control at 125 ppm with Botrytis cinerea was at least 75%.
As to `Cc1cc(C2CON=C(c3c(Oc4cccc(C(F)(F)F)c4)cnn3C)N2)c(C)s1` (stereo not drawn) [a-28], the inhibition of growth at 25 ppm with Colletotrichum acutatum and with Glomerella cingulata was at least 75% in each case.
As to `Cc1ccc(C(CON)NCc2c(Oc3cccc(C(F)(F)F)c3)cnn2C)o1` (stereo not drawn) [a-29], the inhibition of growth at 25 ppm in the assay on Glomerella cingulata is at least 75%.
`CCn1nc(Cl)c(Oc2cccc(C(F)(F)F)c2)c1C1=NOCC(Cc2ccc(C)cc2C)N1` (stereo not drawn) [a-30, 3-(3-chloro-1-ethyl-4-(3-(trifluoromethyl)phenoxy)-1H-pyrazol-5-yl)-5-(2,4-dimethylbenzyl)-5,6-dihydro-4H-1,2,4-oxadiazine]: the inhibition of growth at 25 ppm in the assay on Colletotrichum acutatum and in the assay on Glomerella cingulata was at least 75% in each case. In addition, the pest or weed control at 25 ppm in the assay on Botrytis cinerea is at least 75%. In addition, in the assay with Botrytis cinerea, the pest or weed control at 125 ppm is at least 75%.
With `C=C/C(=C\C=C\C)CC1CON=C(c2c(Oc3cccc(C)c3)c(C)nn2C)N1` (stereo not drawn) [a-31], the inhibition of growth at 25 ppm in the assay on Colletotrichum acutatum and in the assay on Glomerella cingulata was at least 75% throughout.
`CO/N=C(\NCCc1ccc(C)cc1C)c1c(Oc2cccc(C#N)c2)cnn1C` [a-33]: the inhibition of growth at 25 ppm in the assay on Colletotrichum acutatum and in the assay on Glomerella cingulata was at least 75% each time.
Consider `C/C=C(C#N)\C=C(\C)CCC1CON=C(c2c(Oc3cccc(C)c3)cnn2C)N1` (stereo not drawn) [a-34], for which the inhibition of growth at 25 ppm with Colletotrichum acutatum and in the assay with Glomerella cingulata was at least 75% in each case. Further, the pest or weed control at 125 ppm with Botrytis cinerea is at least 75%.
Consider `C/C=C/c1ccc(CC2CON=C(c3c(Oc4cccc(C)c4)cnn3C)N2)c(C)c1` (stereo not drawn) [a-35], for which the inhibition of growth at 25 ppm with Colletotrichum acutatum and with Glomerella cingulata was at least 75% in each case.

The values are drawn from patent publication US20260184701A1, “FIVE-MEMBERED HETEROARYL COMPOUND AND AGRICULTURAL AND HORTICULTURAL FUNGICIDE” (Nippon Soda Co., Ltd., priority 2022, published 2026).
